From PubChem BioAssay AID400 (SGCOxCompounds, 2006) come the findings set out here.

SMILES strings stand for the structures.

In general, inhibition refers to the relative decrease from the control value, in per cent.

Sequence of Tyrosine-protein phosphatase non-receptor type 5 (Homo sapiens) (P54829 whole entry, looked up): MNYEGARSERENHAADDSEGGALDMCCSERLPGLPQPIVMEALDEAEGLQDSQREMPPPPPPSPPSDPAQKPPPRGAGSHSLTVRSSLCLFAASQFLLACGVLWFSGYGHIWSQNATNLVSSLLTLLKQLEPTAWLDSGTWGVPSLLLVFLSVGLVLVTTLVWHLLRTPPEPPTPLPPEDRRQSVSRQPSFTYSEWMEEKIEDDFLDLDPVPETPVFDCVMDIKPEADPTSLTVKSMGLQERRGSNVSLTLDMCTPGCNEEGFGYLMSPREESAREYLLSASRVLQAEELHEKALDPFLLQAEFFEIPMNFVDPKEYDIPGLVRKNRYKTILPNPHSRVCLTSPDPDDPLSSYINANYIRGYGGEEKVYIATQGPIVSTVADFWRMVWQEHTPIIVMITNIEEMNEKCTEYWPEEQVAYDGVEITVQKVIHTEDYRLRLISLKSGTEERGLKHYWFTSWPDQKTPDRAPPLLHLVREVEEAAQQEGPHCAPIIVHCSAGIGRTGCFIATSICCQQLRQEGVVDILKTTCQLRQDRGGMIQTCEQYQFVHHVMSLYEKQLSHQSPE

The first assay has as its target Tyrosine-protein phosphatase non-receptor type 5 (Homo sapiens) (UniProt P54829). Description: PTPN5 (STEP) phosphatase inhibitors, biochemical, human, DiFMUP fluorescence (AID 400). Conditions: recombinant PTPN5, DiFMUP fluorescence phosphatase assay; at 50 µM; enzyme 6.5 ng/mL; DTT 5 mM; hits give high values.
With `Oc1c(Cl)c(Cl)c(O)c2nsnc12`, the inhibition was 33%.
With `CC1(C)OC(=O)C(=Cc2ccc(Br)o2)C(=O)O1`, the inhibition was 7%.
For the compound `NC1=NC(=O)/C(=C/C=C/c2ccc([N+](=O)[O-])o2)S1`, the inhibition is 75.5%.
Consider `O=C(O)C1Nc2c(O)cccc2C2C=CCC12` (stereo not given), for which the inhibition is 17%.
On the same count and under the same terms, the value for `CC(=O)c1ccc2c(c1)C1C=CCC1C(C(=O)O)N2` (stereo not given) was 46%.
Take `O=C1NC(=S)S/C1=C\C=C\c1ccc([N+](=O)[O-])o1`: the inhibition was 88%.
Consider `COc1cc[n+](C(=O)N(C)C)cc1`, for which the inhibition was 14%.

Staying with this assay, now noted: recombinant PTPN5, DiFMUP fluorescence phosphatase assay; at 50 µM; enzyme 20 ng/mL; DTT 1 mM; hits give high values.
As for `Cn1nc(-c2ccccc2)nc2c(=O)n(C)c(=O)nc1-2`, the inhibition was 95%.

Still in this assay, the particulars now being: recombinant PTPN5, DiFMUP fluorescence phosphatase assay; at 50 µM; enzyme 87 ng/mL; DTT 5 mM; hits give high values.
For the compound `COc1ccc(-c2nc3cc(N=Cc4cc(C(=O)O)ccc4O)ccc3o2)cc1`, the inhibition is 83%.
For `O=C(O)c1ccc(O)c(C=Nc2ccc3oc(-c4cccc(Cl)c4Cl)nc3c2)c1`, the inhibition is 33%.
On to `COc1ccccc1C(=O)Nc1ccc(O)cc1C(=O)O`, for which the inhibition was 33%.
With `O=C(O)c1ccc([O-])cn1.OO.OO.[K+].[K+].[O]=[V]`, the inhibition is 90%.
For the compound `OO.OO.[K+].[O]=[V].c1cnc2c(c1)ccc1cccnc12`, the inhibition is 72%.
Still for that read-out and setting: the result for `CC(C)C(=O)Nc1ccc(O)cc1C(=O)O` reads 29%; that for `F`, 91%; that for `O=C(O)c1ccc(O)c(C=Nc2cccc(-c3nc4ccccc4o3)c2)c1`, 38%.
For the compound `O=C(O)c1ccc(O)c(/C=N/N(CCO)C2=NS(=O)(=O)c3ccccc32)c1`, the inhibition is 43%.
On the same count and under the same terms, the value for `O=C(O)c1ccc(O)cn1.OO.[O]=[V]` was 63%.
For the compound `O=C([O-])c1ccccn1.OO.OO.[K+].[K+].[O]=[V]`, the inhibition is 90%.
Take `OO.OO.[K+].[O]=[V].c1ccc(-c2ccccn2)nc1`: the inhibition is 67%.
Consider `CC(C)(C)NC(=O)CCN(/N=C/c1cc(C(=O)O)ccc1O)C1=NS(=O)(=O)c2ccccc21`, for which the inhibition is 30%.
On the same count and under the same terms, the result for `O=C(O)c1ccc(O)c(C=Nc2ccc3oc(-c4ccc(F)cc4Cl)nc3c2)c1` reads 70%; that for `Cc1ccc2nc(-c3cc(N=Cc4cc(C(=O)O)ccc4O)ccc3O)[nH]c2c1`, 53%.

The assay is the same for the next values; noted with them: recombinant PTPN5, DiFMUP fluorescence phosphatase assay; dose 33 (unit in doubt); enzyme 28.9 ng/mL; DTT 1 mM; hits give high values.
Turning to `[NH-]CO.[NH-]CO.[NH-]CO.[NH-]CO.[O]=[V][O][V]=[O]`, the inhibition is 43%.

The same assay, now with this note: recombinant PTPN5, DiFMUP fluorescence phosphatase assay; dose 200 (unit in doubt); enzyme 20 ng/mL; DTT 1 mM; hits give high values.
In the case of `CCn1nc(/C=C/c2ccccc2)[n+](=O)c2c(=O)n(C)c(=O)[nH]c21`, the inhibition was 54%.
Still for that read-out and setting: the result for `Cn1c(=O)[nH]c2c(c1=O)[n+](=O)c(/C=C/c1ccccc1)nn2C` reads 52%; that for `Cn1nc(/C=C/c2ccccc2)nc2c(=O)n(C)c(=O)nc1-2`, 70%; that for `O=P(O)(O)OP(=O)(O)O`, 31.6%.
Regarding `CCCCOC(OCCCC)(OCCCC)OCCCC`, the inhibition was 99.4%.
Consider `CCn1nc(-c2ccc(Cl)cc2)nc2c(=O)n(C)c(=O)nc1-2`, for which the inhibition was 67.5%.
